Results from patent US20220304992A1, “METHODS OF REJUVENATING AGED TISSUE BY INHIBITING 15-HYDROXYPROSTAGLANDIN DEHYDROGENASE (15-PGDH)” (The Board of Trustees of the Leland Stanford Junior …, priority 2019, published 2022).
Entries after “also recorded” stand apart in the source; their conditions may differ.

Legend:
[1] = test system: myotubes; experiment: Differentiated (starved) cultured myotubes: Atrogin1 expression and diameter; assay type: cell-based, mouse
Experimental: For myotubes we performed fixation using 4% PFA, blocking and permeabilization using PBS/1% BSA/0.1% Triton X-100 and staining with primary antibodies anti-MyHC (Thermo Fisher Scientific, catalog #14-6503-82, clone MF-20, 1:500) and then with AlexaFluor secondary Antibodies (Jackson ImmunoResearch Laboratories, 1:500). We counterstained nuclei with DAPI (Invitrogen).
Primary myoblasts were grown in myogenic cell culture medium containing DMEM/F10 (50:50), 15% FBS, 2.5 ng ml-1 fibroblast growth factor-2 and 1% penicillin-streptomycin. For differentiation experiments, confluent myoblasts were grown in medium containing 5% horse serum, DMEM. […] Myoblasts were isolated from EP4^fl/fl mice and received either a mCherry/Cre lentivirus or a mock infection as previously described (5).
For cultured myotubes we performed fixation using 4% PFA, blocking and permeabilization using PBS/1% BSA/0.1% Triton X-100 and staining with primary antibodies anti-MYH (Thermo Fisher Scientific, catalog #14-6503-82, clone MF-20, 1:500) and then with AlexaFluor secondary Antibodies (Jackson ImmunoResearch Laboratories, 1:500). We counterstained nuclei with DAPI (Invitrogen). We acquired images using the KEYENCE BZ-X700 all-in-one fluorescence microscope (Keyence) with 20x/0.75 N.A. objectives. We analyzed the fiber area using the Keyence Advanced Analysis Software. For fiber area the entire maximum cross-sectional area of the muscle was quantified or at least 10 fields of LAMININ or WGA stained myofiber cross-sections encompassing over 400 myofibers were captured for each mouse as above. For fiber typing analysis, the MATLAB application SMASH-Semi-Automatic Muscle Analysis Using Segmentation of Histology, was used as previously described (12). Data analyses were blinded. The researchers performing the imaging acquisition and scoring were unaware of treatment condition given to sample groups analyzed.
Primary murine myoblasts were grown in myogenic cell culture medium containing DMEM/F10 (50:50), 15% FBS, 2.5 ng ml^−1 fibroblast growth factor-2 and 1% penicillin-streptomycin. […] For differentiation experiments, confluent myoblasts were grown in medium containing 5% horse serum, DMEM.

[2] = test system: 15-PGDH (Hpgd); experiment: Senolytic ABT-263 treatment of aged mice: 15-PGDH in muscle; assay type: in vivo, mouse; details: 20 month mice, analyzed 2 months later
Experimental: For ABT-263 treatments, 20 month old C57/B16 mice were treated with vehicle (ethanol:polyethylene glycol 400:Phosal 50 PG) or ABT-263 (in ethanol:polyethylene glycol 400:Phosal 50 PG) by oral gavage for 2 cycles of 1 week with a 2 week rest period between cycles as described previously (1). For the Duchenne muscular dystrophy (DMD) mouse model, we used 8-10 month old mdx4cv/mTRKO(G2) generated as previously described (2).
(§1) For ABT-263 treatments, 20 month old C57/B16 mice were treated with vehicle (ethanol:polyethylene glycol 400:Phosal 50 PG) or 50 mg/kg/day ABT-263 (in ethanol:polyethylene glycol 400:Phosal 50 PG) by oral gavage for 2 cycles of 1 week with a 2 week rest period between cycles as described previously (5). Intramuscular injection of PGE2 was carried out in young mice with either 13 nmol PGE2 (Cayman Chemicals) or vehicle control (PBS) into the TA muscle. Mouse transgenic strains were purchased from The Jackson Laboratory (EP4^flox/flox; EP4O) No. 028102 (6). We validated these genotypes by appropriate PCR-based strategies. Studies were performed with male mice.
We collected and prepared recipient Tibialis anterior (TA) or gastrocnemius (GA) muscle tissues for histology as previously described (6). […]

[3] = test system: AKT/FOXO pathway; experiment: Immunoblots of human myotubes treated with PGE2; assay type: cell-based; details: PGE2 10 ng/ml, 15 or 30 minutes
Experimental: Primary murine myoblasts were grown in myogenic cell culture medium containing DMEM/F10 (50:50), 15% FBS, 2.5 ng ml^-1 fibroblast growth factor-2 and 1% penicillin-streptomycin. […] For differentiation experiments, confluent myoblasts were grown in medium containing 5% horse serum, DMEM. […] Total lysates were prepared using lysis buffer (50 mM Tris-HCl pH 7.5, 150 mM NaCl, 4 mM CaCl, 1.5% Triton X-100, protease inhibitors and micrococcal nuclease). […] We used the following antibodies: 15-PGDH (Santa Cruz Biotechnology, cat # sc-271418); phospho-AKT ([…]) (Cell Signaling cat #4060), AKT (Cell signaling cat #2920); phospho-FoxO1 ([…])/FoxO3a ([…]) Antibody (Cell Signaling cat #9464T); Foxo3a (Cell Signaling cat #2497); phospho-CREB (Ser133) (Cell Signaling cat #9198S); phospho-S6 ribosomal protein (Ser235/236) (Cell Signaling cat#4858); SMC1 (Bethyl Laboratories cat# […]). We used HRP conjugated secondary antibodies and developed by incubating the membranes with ECL Western Blotting Substrate (Nacalai USA) and imaging using the ChemiDoc Imaging System (BioRad).

[4] = test system: murine myotubes; experiment: Protein synthesis by in vitro SUnSET (puromycin incorporation); assay type: cell-based, mouse; details: PGE2 10 ng/ml daily, 4 d
Experimental: The SUnSET assay was used to monitor the rate of protein synthesis as previously described (4). Briefly, 10 min prior harvesting the cells, puromycin was added to culture medium at […]. As a control, cycloheximide to block protein translation was added. Cell extracts were then processed for western blotting using anti-puromycin 12D10 antibody (Millipore).

[5] = test system: cyclic AMP response element binding protein (CREB); experiment: Immunoblots of muscle lysates after intramuscular PGE2; assay type: in vivo, mouse; details: young mice, 13 nmol i.m., 0, 30 or 60 minutes
Experimental: as §1
Total lysates were prepared using lysis buffer (50 mM Tris-HCl pH 7.5, 150 mM NaCl, 4 mM CaCl, 1.5% Triton X-100, protease inhibitors and micrococcal nuclease). For tissue extracts, lysates were homogenized a FastPrep 24 homogenizer (MP Biomedicals) for 40 seconds at a speed of 6 m/s. We used the following antibodies: 15-PGDH (Santa Cruz Biotechnology, cat # sc-271418); phospho-AKT (Ser 473) (Cell Signaling cat #4060), AKT (Cell signaling cat #2920); phospho-FoxO1 (Thr24)/FoxO3a (Thr32) Antibody (Cell Signaling cat #9464T); Foxo3a (Cell Signaling cat #2497); phospho-CREB (Ser133) (Cell Signaling cat #9198S); phospho-S6 ribosomal protein (Ser235/236) (Cell Signaling cat#4858); SMC1 (Bethyl Laboratories cat# A300-055A-T). […]

[6] = test system: INK-ATTAC mice; experiment: AP20187 clearance of senescent cells in INK-ATTAC mice; assay type: in vivo, mouse; details: 16-month treatment
Excerpt: We performed all experiments and protocols in compliance with the institutional guidelines of Stanford University and Administrative Panel on Laboratory Animal Care (APLAC). Middle aged (18-20 mo.) and aged (>24 mo.) mice C57BL/6 were obtained the US National Institute on Aging (NIA) for aged muscle studies, and young (2-4 mo.) wild-type C57BL/6 mice from Jackson Laboratory. INK-ATTAC mice were generated as previously described (1). INK-ATTAC healthspan assessments. INK-ATTAC mice were crossed onto the C57BL6/J genetic background and maintained in specific-pathogen free housing on a 12-hour dark/light cycle for study duration. At 12 months of age, male mice were either utilized for baseline healthspan assessments and terminal muscle harvest or randomized to receive twice-weekly vehicle or AP20187 (2 mg/kg intraperitoneal injection; B/B homodimerizer, Clontech) until assessment and sacrifice at 28 months of age (2). […] Time and distance to exhaustion was performed as previously described (4) for SW-treated mice and their controls.
We isolated and enriched myogenic cells as previously described (6-9). Briefly, hindlimb muscles were minced and digested using a collagenase and dispase solution by the MACs Dissociator (Miltenyi). Using FACs, for myogenic stem and progenitor cells we isolated cells negative for the hematopoietic lineage and non-muscle cells (CD45-/CD11b-/CD31-/Scal-) and sorted for a7-integrin*cells markers. For macrophages isolation we sorted a7-/Cd11b+/Cd11c-/F4/80^+ populations. For endothelial cells we sorted a7-/Cd11b-/Cd11c/CD31+. We generated and analyzed flow cytometry scatter plots using FlowJo v10.0.

CC(C(=O)Nc1cc(C#N)ccc1CCCC(=O)O)c1ccc(F)c2ccccc12 (stereo not shown) [ONO-AE3-208]
PGE2-induced increase of myotube diameter in the presence of the antagonist ([1]; ONO-AE3-208 1 μM with PGE2 10 ng/ml): abrogated; also recorded: not seen

CC1(C)CCC(c2ccc(Cl)cc2)=C(CN2CCN(c3ccc(C(=O)NS(=O)(=O)c4ccc(N[C@H](CCN5CCOCC5)CSc5ccccc5)c(S(=O)(=O)C(F)(F)F)c4)cc3)CC2)C1 [ABT-263, navitoclax]
15-PGDH (Hpgd) mRNA / gene expression levels in muscle ([2]; 50 mg/kg/day oral gavage, 2 cycles, 50 mg/kg/day): reduced; also recorded: markedly decreased | percentage of cells expressing 15-PGDH by immunohistochemistry [2]: markedly decreased

CCCCC[C@H](O)/C=C/[C@H]1[C@H](O)CC(=O)[C@@H]1C/C=C\CCCC(=O)O [PGE2, Prostaglandin E2]
myotube diameter ([1]; starved (24 hr) or non-starved myotubes, PGE2 10 ng/ml, SW 1 μM): increased; also recorded: marked increase | Atrogin1 expression ([1]; starved myotubes, PGE2 10 ng/ml): greatly decreased | FOXO (pFOXO3a) [3]: inactivated | pAKT levels [3]: increased levels | phospho-S6 ribosomal protein (pS6rp) [3]: activated | protein synthesis quantified by puromycin incorporation [4]: increased | CREB activation in skeletal muscles [5]: activates; also recorded: activation

CC[C@H](C(=O)N1CCCC[C@H]1C(=O)O[C@H](CCc1ccc(OC)c(OC)c1)c1cccc(OCC(=O)NCC(CNC(=O)COc2cccc([C@@H](CCc3ccc(OC)c(OC)c3)OC(=O)[C@@H]3CCCCN3C(=O)[C@@H](CC)c3cc(OC)c(OC)c(OC)c3)c2)CN(C)C)c1)c1cc(OC)c(OC)c(OC)c1 [AP]
15-PGDH levels in FACS isolated macrophages [6]: reduced levels | PGE2 levels in muscle by LC-MS/MS [6]: increase | 15-PGDH transcript levels in muscle ([6]; 2 mg/kg i.p. twice weekly): markedly reduced | endurance (distance run on a treadmill until exhaustion and body weight) ([6]; 28 months): increase | grip strength ([6]; 28 months): increase | hindlimb muscle mass (TA and GA) ([6]; 28 months): increase
